Patent publication US9561228B2 (Celgene Avilomics Research, Inc., priority 2013, dated 2017)
Where two headings read alike, the source gives them in different places.

What was measured:
Erk1 = biological target: T1, Erk1 (Homo sapiens, UniProt P27361); test: Protein Mass Modification Assay (intact protein MALDI, 60 min, 10-fold excess of compound); assay type: binding
T1 construct: purchased Millipore 14-439
How it was run: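 Percent covalent modification comes from the intact-protein MALDI centroid mass shift, treated versus control, divided by compound MW. Before analysis, human Erk1 was exposed to compound at 10-fold excess over protein for 60 min at room temperature.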

[1] = tested on: ERK1/2 phosphorylation of p90RSK in HCT116 cells; test: Detection of total and phospho-RSK by MSD ELISA (HCT116); assay type: cell-based; details: Homo sapiens, HCT-116, read-out: ERK1/ERK2 PRSK HCT116 EC50
How it was run: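 ERK1/2 activity read in cells as p90RSK phosphorylation: lysates from HCT116 cells given compound for 2 h at 37° C were captured on MSD plates. Detection used a pSer380 RSK or a total RSK antibody with SulfoTag secondaries.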

MEK1 activated ERK1 = biological target: T2, MEK1 activated ERK1 (Homo sapiens, UniProt P27361); test: Omnia continuous-read kinase assay for potency against MEK1 activated ERK1; assay type: biochemical
T2 construct: purchased Millipore (Billerica, Mass.) 14-439-K
T2 sequence (P27361 whole entry): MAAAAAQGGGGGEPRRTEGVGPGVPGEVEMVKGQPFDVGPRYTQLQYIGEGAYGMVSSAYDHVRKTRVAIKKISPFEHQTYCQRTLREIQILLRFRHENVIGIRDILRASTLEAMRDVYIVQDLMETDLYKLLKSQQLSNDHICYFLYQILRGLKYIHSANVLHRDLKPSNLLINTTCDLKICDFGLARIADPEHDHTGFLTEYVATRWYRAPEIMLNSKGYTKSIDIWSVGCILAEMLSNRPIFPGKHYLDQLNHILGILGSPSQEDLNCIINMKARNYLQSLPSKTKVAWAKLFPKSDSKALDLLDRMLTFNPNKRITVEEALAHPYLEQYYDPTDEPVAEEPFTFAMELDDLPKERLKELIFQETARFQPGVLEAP
How it was run: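 Apparent IC50 came from initial reaction slopes (RFU vs time) plotted against log inhibitor with a variable-slope fit. Reactions were started with ERK1 (4 nM final) added to 50 μM ATP, roughly at its appKM, and 10 μM Sox-conjugated ST17 peptide in 20 mM Tris pH 7.5, 5 mM MgCl2. Fluorescence was monitored every 71 seconds.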

[2] = MEK1 activated ERK1, ATP at KM, read-out: ERK1 Omnia WT ATP KM IC50

T1 sequence (P27361 whole entry): as above

Row | ERK1 Mass Mod (%) (Erk1) | EC50 [1] | IC50 (MEK1 activated ERK1; ATP at KM, WT) | SMILES | IC50 (MEK1 activated ERK1; [2])
1 | E (a mass modification of ≧70%) | 101 to 500 nM | 101 to 500 nM | C=CC(=O)Nc1cc(C)ccc1Nc1nc(Nc2ncc(C(F)(F)F)c(OC)n2)ncc1C(F)(F)F [Compound I-354, N-(2-((2-((4-methoxy-5-(trifluoromethyl)pyrimidin-2-yl)amino)-5-(trifluoromethyl)pyrimidin-4-yl)amino)-5-methylphenyl)acrylamide] | 
2 | E (a mass modification of ≧70%) | < 100 nM | < 100 nM | C=CC(=O)Nc1cc(C)c(F)cc1Nc1nc(Nc2nc(OC)ncc2C)ncc1C(F)(F)F [Compound I-377, N-(4-fluoro-2-((2-((2-methoxy-5-methylpyrimidin-4-yl)amino)-5-(trifluoromethyl)pyrimidin-4-yl)amino)-5-methylphenyl)acrylamide] | 
3 | E (a mass modification of ≧70%) | 101 to 500 nM | 101 to 500 nM | C=CC(=O)Nc1cc(C)ccc1Nc1nc(Nc2nc(OC)ncc2OC)ncc1C(F)(F)F [Compound I-349, N-(2-((2-((2,5-dimethoxypyrimidin-4-yl)amino)-5-(trifluoromethyl)pyrimidin-4-yl)amino)-5-methylphenyl)acrylamide] | 
4 | E (a mass modification of ≧70%) | < 100 nM |  | C=CC(=O)Nc1ccccc1Nc1nc(Nc2cc(OC)ncc2C)ncc1C(F)(F)F [Compound I-85, N-(2-((2-((2-Methoxy-5-methylpyridin-4-yl)amino)-5-(trifluoromethyl)pyrimidin-4-yl)amino)phenyl)acrylamide] | < 100 nM
5 | E (a mass modification of ≧70%) | 101 to 500 nM | 101 to 500 nM | C=CC(=O)Nc1cc(CN2CCN(S(C)(=O)=O)CC2)ccc1Nc1nc(Nc2nc(OC)ncc2C)ncc1C(F)(F)F [Compound I-383, N-(2-((2-((2-methoxy-5-methylpyrimidin-4-yl)amino)-5-(trifluoromethyl)pyrimidin-4-yl)amino)-5-((4-(methylsulfonyl)piperazin-1-yl)methyl)phenyl)acrylamide] | 
6 | E (a mass modification of ≧70%) | 101 to 500 nM | < 100 nM | C=CC(=O)Nc1cc(OCCN)ccc1Nc1nc(Nc2cc(OC)ncc2C)ncc1C(F)(F)F [Compound I-396, N-(5-(2-aminoethoxy)-2-((2-((2-methoxy-5-methylpyridin-4-yl)amino)-5-(trifluoromethyl)pyrimidin-4-yl)amino)phenyl)acrylamide] | 
7 | E (a mass modification of ≧70%) | 501 to 999 nM |  | C=CC(=O)Nc1cc(C)ccc1Nc1nc(Nc2nc(OC)ccc2Cl)ncc1C(F)(F)F [Compound I-360, N-(2-((2-((3-chloro-6-methoxypyridin-2-yl)amino)-5-(trifluoromethyl)pyrimidin-4-yl)amino)-5-methylphenyl)acrylamide] | 
8 |  | 501 to 999 nM | < 100 nM | C=CC(=O)Nc1cc(O[C@H](C)C(=O)N2CCN(C(C)=O)CC2)ccc1Nc1nc(Nc2cc(OC)ncc2C)ncc1C(F)(F)F [Compound I-409, (R)—N-(5-((1-(4-acetylpiperazin-1-yl)-1-oxopropan-2-yl)oxy)-2-((2-((2-methoxy-5-methylpyridin-4-yl)amino)-5-(trifluoromethyl)pyrimidin-4-yl)amino)phenyl)acrylamide] | 
9 |  | < 100 nM | < 100 nM | C=CC(=O)Nc1cc(O[C@H](C)C(N)=O)ccc1Nc1nc(Nc2cc(OC)ncc2C)ncc1C(F)(F)F [Compound I-413, (R)—N-(5-((1-amino-1-oxopropan-2-yl)oxy)-2-((2-((2-methoxy-5-methylpyridin-4-yl)amino)-5-(trifluoromethyl)pyrimidin-4-yl)amino)phenyl)acrylamide] | 
10 | E (a mass modification of ≧70%) | 101 to 500 nM |  | C=CC(=O)Nc1cc(C)ccc1Nc1nc(Nc2cc(OC)cnc2Cl)ncc1C(F)(F)F [Compound I-361, N-(2-((2-((2-chloro-5-methoxypyridin-3-yl)amino)-5-(trifluoromethyl)pyrimidin-4-yl)amino)-5-methylphenyl)acrylamide] | 
11 | E (a mass modification of ≧70%) | 101 to 500 nM |  | C=CC(=O)Nc1cc(C)ccc1Nc1nc(Nc2nc(OC)ncc2Cl)ncc1C(F)(F)F [Compound I-344, N-(2-((2-((5-chloro-2-methoxypyrimidin-4-yl)amino)-5-(trifluoromethyl)pyrimidin-4-yl)amino)-5-methylphenyl)acrylamide] | 
12 |  | 101 to 500 nM | 101 to 500 nM | C=CC(=O)Nc1cc(OC(F)(F)F)ccc1Nc1nc(Nc2cc(OC)ncc2C)ncc1C(F)(F)F [Compound I-407, N-(2-((2-((2-methoxy-5-methylpyridin-4-yl)amino)-5-(trifluoromethyl)pyrimidin-4-yl)amino)-5-(trifluoromethoxy)phenyl)acrylamide] | 
13 |  | 101 to 500 nM | > 1000 nM | C=CC(=O)Nc1cc(C)ccc1Nc1nc(Nc2cc(C(=O)NC)nn2C)ncc1C(F)(F)F [Compound I-424, 5-((4-((2-acrylamido-4-methylphenyl)amino)-5-(trifluoromethyl)pyrimidin-2-yl)amino)-N,1-dimethyl-1H-pyrazole-3-carboxamide] | 
14 |  | > 1000 nM | > 1000 nM | C=CC(=O)Nc1cc(C)ccc1Nc1nc(NC2COC2)ncc1C(F)(F)F [Compound I-420, N-(5-methyl-2-((2-(oxetan-3-ylamino)-5-(trifluoromethyl)pyrimidin-4-yl)amino)phenyl)acrylamide] | 
15 |  | 101 to 500 nM | < 100 nM | C=CC(=O)Nc1cc(CN2CCN(C(C)=O)C[C@@H]2C)ccc1Nc1nc(Nc2cc(OC)ncc2C)ncc1C(F)(F)F [Compound I-421, (S)—N-(5-((4-acetyl-2-methylpiperazin-1-yl)methyl)-2-((2-((2-methoxy-5-methylpyridin-4-yl)amino)-5-(trifluoromethyl)pyrimidin-4-yl)amino)phenyl)acrylamide] | 
16 |  | 501 to 999 nM | 101 to 500 nM | C=CC(=O)Nc1cc(C)ccc1Nc1nc(Nc2cc(OC)ncc2CC)ncc1C(F)(F)F [Compound I-408, N-(2-((2-((5-ethyl-2-methoxypyridin-4-yl)amino)-5-(trifluoromethyl)pyrimidin-4-yl)amino)-5-methylphenyl)acrylamide] | 
17 |  | > 1000 nM | > 1000 nM | C=CC(=O)Nc1c(Nc2nc(Nc3cc(OC)ncc3C)ncc2OC)cccc1OCc1nccs1 [Compound I-411, N-(2-((5-methoxy-2-((2-methoxy-5-methylpyridin-4-yl)amino)pyrimidin-4-yl)amino)-6-(thiazol-2-ylmethoxy)phenyl)acrylamide] | 
18 |  | 101 to 500 nM | 501 to 999 nM | C=CC(=O)Nc1cc(O[C@@H](C)C(=O)N2CCN(S(C)(=O)=O)CC2)ccc1Nc1nc(Nc2cc(OC)ncc2C)ncc1C(F)(F)F [Compound I-426, (S)—N-(2-((2-((2-methoxy-5-methylpyridin-4-yl)amino)-5-(trifluoromethyl)pyrimidin-4-yl)amino)-5-((1-(4-(methylsulfonyl)piperazin-1-yl)-1-oxopropan-2-yl)oxy)phenyl)acrylamide] | 
19 |  | < 100 nM | < 100 nM | C=CC(=O)Nc1cc(CN2CCN(C(C)=O)C[C@H]2C)ccc1Nc1nc(Nc2cc(OC)ncc2C)ncc1C(F)(F)F [Compound I-422, (R)—N-(5-((4-acetyl-2-methylpiperazin-1-yl)methyl)-2-((2-((2-methoxy-5-methylpyridin-4-yl)amino)-5-(trifluoromethyl)pyrimidin-4-yl)amino)phenyl)acrylamide] | 
20 |  | 101 to 500 nM | < 100 nM | C=CC(=O)Nc1cc(O[C@H](C)C(=O)N2CCN(S(C)(=O)=O)CC2)ccc1Nc1nc(Nc2cc(OC)ncc2C)ncc1C(F)(F)F [Compound I-410, (R)—N-(2-((2-((2-methoxy-5-methylpyridin-4-yl)amino)-5-(trifluoromethyl)pyrimidin-4-yl)amino)-5-((1-(4-(methylsulfonyl)piperazin-1-yl)-1-oxopropan-2-yl)oxy)phenyl)acrylamide] | 
21 | E (a mass modification of ≧70%) | 101 to 500 nM |  | C=CC(=O)Nc1cc(C)ccc1Nc1nc(Nc2nc(O)ncc2C)ncc1C(F)(F)F [Compound I-364, N-(2-((2-((2-hydroxy-5-methylpyrimidin-4-yl)amino)-5-(trifluoromethyl)pyrimidin-4-yl)amino)-5-methylphenyl)acrylamide] | 
22 |  | 501 to 999 nM | 101 to 500 nM | C=CC(=O)Nc1cc(O[C@@H](C)C(=O)N2CCN(C(C)=O)CC2)ccc1Nc1nc(Nc2cc(OC)ncc2C)ncc1C(F)(F)F [Compound I-425, (S)—N-(5-((1-(4-acetylpiperazin-1-yl)-1-oxopropan-2-yl)oxy)-2-((2-((2-methoxy-5-methylpyridin-4-yl)amino)-5-(trifluoromethyl)pyrimidin-4-yl)amino)phenyl)acrylamide] | 

Row | SMILES | ERK1 Mass Mod (%) (Erk1) | EC50 [1] | IC50 (MEK1 activated ERK1; ATP at KM, WT) | IC50 (MEK1 activated ERK1; [2])
23 | C=CC(=O)Nc1cc(C)ccc1Nc1nc(Nc2cc(OC)nc(OC)c2)ncc1C(F)(F)F [Compound I-96] | E (key: E: a mass modification of ≧70%; F: a mass modification of 31-69%; G: a mass modification ≦30%) |  |  | 101 to 500 nM
24 | C=CC(=O)Nc1cc(C)ccc1Nc1nc(Nc2cc(C(C)=O)ccc2C)ncc1C(F)(F)F [Compound I-84, N-(2-((2-((5-Acetyl-2-methylphenyl)amino)-5-(trifluoromethyl)pyrimidin-4-yl)amino)-5-methylphenyl)acrylamide] | E (key: E: a mass modification of ≧70%; F: a mass modification of 31-69%; G: a mass modification ≦30%) |  |  | 101 to 500 nM
